Test results from patent US20250340560A1, “SUBSTITUTED PYRAZOLO[1,5-a]PYRIMIDINES AS BRUTON'S TYROSINE KINASE MODULATORS” (BEIGENE SWITZERLAND GMBH, priority 2013, published 2025).
Where a name gives a salt, the structure may show the parent alone.

Each molecule was assayed against Recombinant Btk (Homo sapiens (Human), UniProt Q06187) (assay: BTK kinase assay (TR-FRET)). Conditions: read-out: IC50 (nM) Btk; 1 hour pre-incubation, ATP at Km.
Sequence of Recombinant Btk (Q06187 whole entry): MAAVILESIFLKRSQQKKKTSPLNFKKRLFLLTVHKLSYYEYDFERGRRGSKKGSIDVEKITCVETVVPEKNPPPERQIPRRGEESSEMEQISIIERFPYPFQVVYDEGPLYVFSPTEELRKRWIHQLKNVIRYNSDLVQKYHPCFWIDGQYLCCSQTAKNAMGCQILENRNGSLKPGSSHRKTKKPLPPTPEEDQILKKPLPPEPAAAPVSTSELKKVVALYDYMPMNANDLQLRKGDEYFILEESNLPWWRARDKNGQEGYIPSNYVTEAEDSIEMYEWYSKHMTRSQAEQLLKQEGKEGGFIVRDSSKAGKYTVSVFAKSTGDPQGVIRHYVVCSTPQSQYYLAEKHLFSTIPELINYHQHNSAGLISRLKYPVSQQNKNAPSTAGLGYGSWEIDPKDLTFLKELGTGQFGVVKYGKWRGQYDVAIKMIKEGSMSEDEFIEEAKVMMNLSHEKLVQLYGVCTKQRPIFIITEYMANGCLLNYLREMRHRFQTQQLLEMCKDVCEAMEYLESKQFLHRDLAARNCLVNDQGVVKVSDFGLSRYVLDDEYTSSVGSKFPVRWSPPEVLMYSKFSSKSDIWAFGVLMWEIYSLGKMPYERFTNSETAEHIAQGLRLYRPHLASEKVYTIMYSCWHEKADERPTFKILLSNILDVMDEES

SMILES | IC50 [nM]
NC(=O)c1c(-c2ccc(Oc3ccccc3)cc2)nn2c1NCCC2c1ccc(N)cc1 (centres unmarked) [Compound 98, 7-(4-aminophenyl)-2-(4-phenoxyphenyl)-4,5,6,7-tetrahydropyrazolo[1,5-a]pyrimidine-3-carboxamide] | 77
NC(=O)c1c(-c2ccc(Oc3ccccc3)cc2)nn2c1NCCC2c1ccncc1 (centres unmarked) [Compound 100, 2-(4-phenoxyphenyl)-7-(pyridin-4-yl)-4,5,6,7-tetrahydropyrazolo[1,5-a]pyrimidine-3-carboxamide] | 260
NC(=O)c1c(-c2ccc(Oc3ccccc3)cc2)nn2c1NCCC2c1cccnc1 (centres unmarked) [Compound 101, 2-(4-phenoxyphenyl)-7-(pyridin-3-yl)-4,5,6,7-tetrahydropyrazolo[1,5-a]pyrimidine-3-carboxamide] | 550
NC(=O)c1c(-c2ccc(Oc3ccccc3)cc2)nn2c1NCCC2c1ccccn1 (centres unmarked) [Compound 102, 2-(4-phenoxyphenyl)-7-(pyridin-2-yl)-4,5,6,7-tetrahydropyrazolo[1,5-a]pyrimidine-3-carboxamide] | 830
C=CC(=O)N1CCCC1C1CCNc2c(C(N)=O)c(-c3ccc(Oc4ccccc4)cc3)nn21 (centres unmarked) [Compound 103, 7-(1-acryloylpyrrolidin-2-yl)-2-(4-phenoxyphenyl)-4,5,6,7-tetrahydropyrazolo[1,5-a]pyrimidine-3-carboxamide] | 1.1
C=CC(=O)N1CC(C2CCNc3c(C(N)=O)c(-c4ccc(OCc5ccccc5)cc4)nn32)C1 (centres unmarked) [Compound 104, 7-(1-acryloylazetidin-3-yl)-2-(4-(benzyloxy)phenyl)-4,5,6,7-tetrahydropyrazolo[1,5-a]pyrimidine-3-carboxamide] | 2.6
C=CC(=O)N1CC(C2CCNc3c(C(N)=O)c(-c4ccc(OCc5ccccn5)cc4)nn32)C1 (centres unmarked) [Compound 105, 7-(1-acryloylazetidin-3-yl)-2-(4-(pyridin-2-ylmethoxy)phenyl)-4,5,6,7-tetrahydropyrazolo[1,5-a]pyrimidine-3-carboxamide] | 18
C=CC(=O)N1CC(C2CCNc3c(C(N)=O)c(-c4ccc(Oc5ccc(Cl)cc5)cc4)nn32)C1 (centres unmarked) [Compound 106, 7-(1-acryloylazetidin-3-yl)-2-(4-(4-chlorophenoxy)phenyl)-4,5,6,7-tetrahydropyrazolo[1,5-a]pyrimidine-3-carboxamide] | 1.4
C=CC(=O)N1CC(C2CCNc3c(C(N)=O)c(-c4ccc(Oc5cccc(Cl)c5)cc4)nn32)C1 (centres unmarked) [Compound 107, 7-(1-acryloylazetidin-3-yl)-2-(4-(3-chlorophenoxy)phenyl)-4,5,6,7-tetrahydropyrazolo[1,5-a]pyrimidine-3-carboxamide] | 0.48
C=CC(=O)NCC1CCNc2c(C(N)=O)c(-c3ccc(OCc4ccccc4)cc3)nn21 (centres unmarked) [Compound 111, 7-(acrylamidomethyl)-2-(4-(benzyloxy)phenyl)-4,5,6,7-tetrahydropyrazolo[1,5-a]pyrimidine-3-carboxamide] | 24
NCC1CCNc2c(C(N)=O)c(-c3ccc(OCC4CC4)cc3)nn21 (centres unmarked) [Compound 112, 7-(aminomethyl)-2-(4-(cyclopropylmethoxy)phenyl)-4,5,6,7-tetrahydropyrazolo[1,5-a]pyrimidine-3-carboxamide] | > 10000
C=CC(=O)NCC1CCNc2c(C(N)=O)c(-c3ccc(OCC4CC4)cc3)nn21 (centres unmarked) [Compound 113, 7-(acrylamidomethyl)-2-(4-(cyclopropylmethoxy)phenyl)-4,5,6,7-tetrahydropyrazolo[1,5-a]pyrimidine-3-carboxamide] | 94
NC(=O)c1c(-c2ccc(Oc3ccccc3)cc2)nn2c1NCCC21CNC1 [Compound 118, 2′-(4-phenoxyphenyl)-5′,6′-dihydro-4′H-spiro[azetidine-3,7′-pyrazolo[1,5-a]pyrimidine]-3′-carboxamide] | 410
C=CC(=O)N1CC2(CCNc3c(C(N)=O)c(-c4ccc(Oc5ccccc5)cc4)nn32)C1 [Compound 119, 1-acryloyl-2′-(4-phenoxyphenyl)-5′,6′-dihydro-4′H-spiro[azetidine-3,7′-pyrazolo[1,5-a]pyrimidine]-3′-carboxamide] | 40
NC(=O)c1c(-c2ccc(Oc3ccccc3)cc2)nn2c3c([nH]c12)CCNCC3 [Compound 120] | 180
CN(C)C/C=C/C(=O)N1CCc2[nH]c3c(C(N)=O)c(-c4ccc(Oc5ccccc5)cc4)nn3c2CC1 [Compound 122] | 0.78
CN(C)C/C=C/C(=O)N1CCCc2[nH]c3c(C(N)=O)c(-c4ccc(Oc5ccccc5)cc4)nn3c2C1 [Compound 124, (E)-8-(4-(dimethylamino)but-2-enoyl)-2-(4-phenoxyphenyl)-4,5,6,7,8,9-hexahydropyrazolo[5′,1′:2,3]imidazo[4,5-c]azepine-3-carboxamide] | 0.62
NC(=O)c1c(-c2ccc(OCc3ccccc3)cc2)nn2c3c([nH]c12)CCNC3 [Compound 125, 2-(4-(benzyloxy)phenyl)-5,6,7,8-tetrahydro-4H-pyrazolo[5′,1′:2,3]imidazo[4,5-c]pyridine-3-carboxamide formate] | 5000

SMILES | IC50 [nM]
C=CC(=O)N1CCc2[nH]c3c(C(N)=O)c(-c4ccc(OCc5ccccc5)cc4)nn3c2C1 [Compound 126, 7-Acryloyl-2-(4-(benzyloxy)phenyl)-5,6,7,8-tetrahydro-4H-pyrazolo[5′,1′:2,3]imidazo[4,5-c]pyridine-3-carboxamide] | 20
C=CC(=O)N1CCc2[nH]c3c(C(N)=O)c(-c4ccc(OCC5CC5)cc4)nn3c2C1 [Compound 127, 7-acryloyl-2-(4-(cyclopropylmethoxy)phenyl)-5,6,7,8-tetrahydro-4H-pyrazolo[5′,1′:2,3]imidazo[4,5-c]pyridine-3-carboxamide] | 300
NC(=O)c1c(-c2ccc(Oc3ccccc3)cc2)nn2c1[nH]c1cc([N+](=O)[O-])ccc12 [Compound 128, 6-nitro-2-(4-phenoxyphenyl)-4H-benzo[4,5]imidazo[1,2-b]pyrazole-3-carboxamide] | 930
NC(=O)c1c(-c2ccc(Oc3ccccc3)cc2)nn2c1[nH]c1cc(N)ccc12 [Compound 129] | 23
NC(=O)c1c(-c2ccc(Oc3ccccc3)cc2)nn2c1[nH]c1cccc(N)c12 [Compound 131, 8-amino-2-(4-phenoxyphenyl)-4H-benzo[4,5]imidazo[1,2-b]pyrazole-3-carboxamide] | 170
C=CC(=O)N1CC(C2CCNc3c(C(N)=O)c(-c4ccc(Oc5ccc(Cl)c(Cl)c5)cc4)nn32)C1 (centres unmarked) [Compound 132, 7-(1-acryloylazetidin-3-yl)-2-(4-(3,4-dichlorophenoxy)phenyl)-4,5,6,7-tetrahydropyrazolo[1,5-a]pyrimidine-3-carboxamide] | 1.7
C=CC(=O)N1CC(C2CCNc3c(C(N)=O)c(-c4ccc(Oc5ccccc5C#N)cc4)nn32)C1 (centres unmarked) [Compound 135, 7-(1-acryloylazetidin-3-yl)-2-(4-(2-cyanophenoxy)phenyl)-4,5,6,7-tetrahydropyrazolo[1,5-a]pyrimidine-3-carboxamide] | 0.38
C=CC(=O)Nc1ccccc1C1CCNc2c(C(N)=O)c(-c3ccc(F)c(F)c3)nn21 (centres unmarked) [Compound 137, 7-(2-acrylamidophenyl)-2-(3,4-difluorophenyl)-4,5,6,7-tetrahydropyrazolo[1,5-a]pyrimidine-3-carboxamide] | 3.2
C=CC(=O)N1CCC(C2(C)CCNc3c(C(N)=O)c(-c4ccc(Oc5ccccc5)cc4)nn32)CC1 (centres unmarked) [Compound 138, 7-(1-acryloylpiperidin-4-yl)-7-methyl-2-(4-phenoxyphenyl)-4,5,6,7-tetrahydropyrazolo[1,5-a]pyrimidine-3-carboxamide] | 1
C=CC(=O)N1CC(C2CCNc3c(C(N)=O)c(-c4ccc(Oc5ccccc5)c(Cl)c4)nn32)C1 (centres unmarked) [Compound 139, 7-(1-acryloylazetidin-3-yl)-2-(3-chloro-4-phenoxyphenyl)-4,5,6,7-tetrahydropyrazolo[1,5-a]pyrimidine-3-carboxamide] | 0.44
C=CC(=O)N1CC(C2CCNc3c(C(N)=O)c(-c4ccc(Oc5ccccc5)c(OC)c4)nn32)C1 (centres unmarked) [Compound 140, 7-(1-acryloylazetidin-3-yl)-2-(3-methoxy-4-phenoxyphenyl)-4,5,6,7-tetrahydropyrazolo[1,5-a]pyrimidine-3-carboxamide formate] | 3000
C=CC(=O)N1CC(C2CCNc3c(C(N)=O)c(-c4ccc(OCCc5ccccc5)cc4)nn32)C1 (centres unmarked) [Compound 141, 7-(1-acryloylazetidin-3-yl)-2-(4-phenethoxyphenyl)-4,5,6,7-tetrahydropyrazolo[1,5-a]pyrimidine-3-carboxamide] | 7
C=CC(=O)NCC1CCNc2c(C(N)=O)c(-c3ccc(OCc4ccccc4)c(OC)c3)nn21 (centres unmarked) [Compound 142, 7-(acrylamidomethyl)-2-(4-(benzyloxy)-3-methoxyphenyl)-4,5,6,7-tetrahydropyrazolo[1,5-a]pyrimidine-3-carboxamide] | 54
C=CC(=O)NCC1(C)CCNc2c(C(N)=O)c(-c3ccc(Oc4ccccc4)cc3)nn21 (centres unmarked) [Compound 143, 7-(acrylamidomethyl)-7-methyl-2-(4-phenoxyphenyl)-4,5,6,7-tetrahydropyrazolo[1,5-a]pyrimidine-3-carboxamide] | 0.89
C=CC(=O)N1CCC(C2CCNc3c(C(N)=O)c(-c4ccccc4)nn32)CC1 (centres unmarked) [Compound 144, 7-(1-acryloylpiperidin-4-yl)-2-phenyl-4,5,6,7-tetrahydropyrazolo[1,5-a]pyrimidine-3-carboxamide trifluoroacetate] | 140
C=CC(=O)N1CC(C2CCNc3c(C(N)=O)c(-c4ccc(Cl)cc4)nn32)C1 (centres unmarked) [Compound 145, 7-(1-acryloylazetidin-3-yl)-2-(4-chlorophenyl)-4,5,6,7-tetrahydropyrazolo[1,5-a]pyrimidine-3-carboxamide] | 72
C=CC(=O)Nc1ccccc1C1CCNc2c(C(N)=O)c(-c3ccc(OCc4ccccn4)c(Cl)c3)nn21 (centres unmarked) [Compound 146, 7-(2-Acrylamidophenyl)-2-(3-chloro-4-(pyridin-2-ylmethoxy)phenyl)-4,5,6,7-tetrahydropyrazolo[1,5-a]pyrimidine-3-carboxamide] | 1.3
